What was measured:
[1] = target: T1, Human Dopamine D4 receptor (Homo sapiens, UniProt P21917); assay: Radioligand binding experiment for dopamine D4 receptor (hD4), [125I]Spiperone; settings: membranes of D4 receptor-transfected Sf9 cells, read-out: pIC50 D4 (converted)
T1 construct: expressed in transfected cells; host or cells: Sf9 cells
T1 sequence (P21917 1-419): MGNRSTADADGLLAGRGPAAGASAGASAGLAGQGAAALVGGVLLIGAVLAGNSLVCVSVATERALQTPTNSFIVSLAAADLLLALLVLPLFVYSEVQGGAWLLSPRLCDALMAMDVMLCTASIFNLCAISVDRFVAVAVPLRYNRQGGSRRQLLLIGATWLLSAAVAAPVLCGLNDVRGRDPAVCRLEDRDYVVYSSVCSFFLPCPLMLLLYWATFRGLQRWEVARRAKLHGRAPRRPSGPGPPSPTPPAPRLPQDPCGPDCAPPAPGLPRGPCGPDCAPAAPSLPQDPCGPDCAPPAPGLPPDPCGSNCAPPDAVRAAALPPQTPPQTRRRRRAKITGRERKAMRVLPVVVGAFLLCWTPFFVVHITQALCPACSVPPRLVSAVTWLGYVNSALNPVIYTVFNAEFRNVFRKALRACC
Description: The interaction of the compounds of Formula (I) with dopamine-receptors, h5HT-transporter and h5HT1A receptor was assessed in in vitro radioligand binding experiments. In general, a low concentration of a radioligand with a high binding affinity for a particular receptor or transporter is incubated with a sample of a tissue preparation enriched in a particular receptor or transporter or with a preparation of cells expressing cloned human receptors in a buffered medium. During the incubation, the radioligand binds to the receptor or transporter. When equilibrium of binding is reached, the receptor bound radioactivity is separated from the non-bound radioactivity, and the receptor- or transporter-bound activity is counted The interaction of the test compounds with the receptor is assessed in competition binding experiments. Various concentrations of the test compound are added to the incubation mixture containing the receptor- or transporter preparation and the radioligand. […]
Human Dopamine D4 receptor-transfected Sf9 cells were collected by scraping into ice-cold Tris-HCl buffer (50 mM, pH 7.4). […] Filters were allowed to dry before adding scintillation fluid and counting in a Topcount scintillation counter. % Specific bound and competition binding curves were calculated using S-Plus software (Insightful).

[2] = target: T2, human 5HT transporter (Homo sapiens, UniProt P31645); assay: Binding experiment for 5-HT transporter, [3H]Paroxetine; settings: 5HT transporter-transfected HEK cells, [3H]Paroxetine binding; read-out: pIC50 5HT reuptake inhibition (converted)
T2 construct: host or cells: HEK cells
T2 sequence (P31645 whole entry): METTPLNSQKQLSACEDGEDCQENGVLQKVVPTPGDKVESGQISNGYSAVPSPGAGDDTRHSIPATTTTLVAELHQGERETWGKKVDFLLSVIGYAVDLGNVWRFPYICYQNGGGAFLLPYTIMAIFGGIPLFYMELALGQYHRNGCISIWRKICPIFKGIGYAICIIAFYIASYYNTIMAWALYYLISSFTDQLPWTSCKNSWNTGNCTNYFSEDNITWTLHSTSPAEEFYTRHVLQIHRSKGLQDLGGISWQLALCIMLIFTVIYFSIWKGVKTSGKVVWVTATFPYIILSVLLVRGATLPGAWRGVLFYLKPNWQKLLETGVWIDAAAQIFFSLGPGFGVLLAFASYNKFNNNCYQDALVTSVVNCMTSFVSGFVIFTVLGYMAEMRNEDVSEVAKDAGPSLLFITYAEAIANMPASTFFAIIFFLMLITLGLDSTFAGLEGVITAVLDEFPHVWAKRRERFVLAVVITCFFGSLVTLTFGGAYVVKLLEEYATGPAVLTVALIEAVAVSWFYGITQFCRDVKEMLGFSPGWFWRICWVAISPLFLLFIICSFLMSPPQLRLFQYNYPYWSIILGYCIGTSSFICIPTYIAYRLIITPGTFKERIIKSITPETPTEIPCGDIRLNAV
Description: (§1) The interaction of the compounds of Formula (I) with dopamine-receptors, h5HT-transporter and h5HT1A receptor was assessed in in vitro radioligand binding experiments. In general, a low concentration of a radioligand with a high binding affinity for a particular receptor or transporter is incubated with a sample of a tissue preparation enriched in a particular receptor or transporter or with a preparation of cells expressing cloned human receptors in a buffered medium. During the incubation, the radioligand binds to the receptor or transporter. When equilibrium of binding is reached, the receptor bound radioactivity is separated from the non-bound radioactivity, and the receptor- or transporter-bound activity is counted The interaction of the test compounds with the receptor is assessed in competition binding experiments. Various concentrations of the test compound are added to the incubation mixture containing the receptor- or transporter preparation and the radioligand. The test compound in proportion to its binding affinity and its concentration inhibits binding of the radioligand.
Frozen human 5HT transporter-transfected HEK cells (Perkin Elmer, Brussels) were thawed and briefly homogenised using an Ultra-Turrax T25 homogeniser prior to dilution to an appropriate protein concentration optimised for specific and non-specific binding. [^3H]Paroxetine (NEN, specific activity 20 Ci/mmol) was diluted in Tris-HCl assay buffer containing NaCl and KCl (50 mM 120 mM and 5 mM, respectively; pH 7.4) at a concentration of 5 nmol/L. Prepared radioligand (25 μl) was then incubated (60 min, 25° C.) with membrane preparations (200 μl) and with 25 μl of either 10% DMSO control, Imipramine (10^−6 mol/L final concentration), or compound of interest Membrane-bound activity was detected by filtration through a Packard Filtermate harvester onto Unifilterplates pre-soaked in 0.1% PEI, washing with ice-cold assay buffer (3×4 ml). Filters were dried prior to addition of scintillation fluid and then counting in a Topcount scintillation counter. % Specific bound and competition binding curves were calculated using S-Plus software (Insightful).

[3] = target: T3, Human Dopamine D2L receptor (Homo sapiens, UniProt P14416); assay: Radioligand binding experiment for dopamine D2 receptor (hD2), [3H]Spiperone; settings: membranes of D2L receptor-transfected CHO cells, read-out: pIC50 D2 (converted)
T3 construct: expressed in transfected cells; host or cells: CHO cells
T3 sequence (P14416 whole entry): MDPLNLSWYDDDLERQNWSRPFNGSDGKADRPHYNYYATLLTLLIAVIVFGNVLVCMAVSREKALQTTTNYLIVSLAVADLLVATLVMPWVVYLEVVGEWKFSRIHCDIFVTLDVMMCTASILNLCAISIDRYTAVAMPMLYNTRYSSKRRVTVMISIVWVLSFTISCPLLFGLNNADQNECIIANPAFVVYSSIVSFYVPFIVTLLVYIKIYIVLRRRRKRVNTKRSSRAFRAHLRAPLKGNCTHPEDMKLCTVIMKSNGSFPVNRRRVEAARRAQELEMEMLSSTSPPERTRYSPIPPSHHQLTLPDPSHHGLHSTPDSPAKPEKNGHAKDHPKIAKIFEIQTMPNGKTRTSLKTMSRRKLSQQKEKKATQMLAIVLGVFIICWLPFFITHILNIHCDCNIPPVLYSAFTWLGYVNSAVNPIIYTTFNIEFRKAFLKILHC
Description: as §1
Human Dopamine D2L receptor-transfected CHO cells were collected by scraping into ice-cold Tris-HCl buffer ([…], pH 7.4). The suspension was centrifuged (23 500×g, 10 min, 4° C.) and pellets stored at −70° C. until require. They were then thawed and briefly homogenised using an Ultra-Turrax T25 homogeniser prior to dilution to an appropriate protein concentration optimised for specific and non-specific binding. [^3H]Spiperone (NEN, specific activity˜70 Ci/mmol) was diluted in Tris-HCl assay buffer containing NaCl, CaCl2, MgCl2, KCI (50, 120, 2, 1, and 5 mM respectively, adjusted to pH 7.7 with HCl) at a concentration of 2 nmol/L. Prepared radioligand (50 μl) was then incubated (30 min, 37° C.) with membrane preparations pre-diluted to an appropriate protein concentration (400 μl), and with 50 μl of either the 10% DMSO control, Butaclamol (10^−6 mol/L final concentration), or compound of interest. Membrane-bound activity was detected by filtration through a Packard Filtermate harvester onto Unifilterplates, washing with ice-old Tris-HCl buffer (50 mM; pH8.0; 3×4 ml). Filters were allowed to dry before adding scintillation fluid and counting in a Topcount scintillation counter. % Specific bound and competition binding curves were calculated using S-Plus software (Insightful).

[4] = target: T4, Human 5HT1A receptor (Homo sapiens, UniProt P08908); assay: Binding experiment for 5-HT1A receptor, [3H]8OHDPAT; settings: membranes of 5HT1A receptor-transfected L929 cells, read-out: pIC50 5HT1A (converted)
T4 construct: expressed in transfected cells; host or cells: L929 cells (stably transfected)
T4 sequence (P08908 1-422): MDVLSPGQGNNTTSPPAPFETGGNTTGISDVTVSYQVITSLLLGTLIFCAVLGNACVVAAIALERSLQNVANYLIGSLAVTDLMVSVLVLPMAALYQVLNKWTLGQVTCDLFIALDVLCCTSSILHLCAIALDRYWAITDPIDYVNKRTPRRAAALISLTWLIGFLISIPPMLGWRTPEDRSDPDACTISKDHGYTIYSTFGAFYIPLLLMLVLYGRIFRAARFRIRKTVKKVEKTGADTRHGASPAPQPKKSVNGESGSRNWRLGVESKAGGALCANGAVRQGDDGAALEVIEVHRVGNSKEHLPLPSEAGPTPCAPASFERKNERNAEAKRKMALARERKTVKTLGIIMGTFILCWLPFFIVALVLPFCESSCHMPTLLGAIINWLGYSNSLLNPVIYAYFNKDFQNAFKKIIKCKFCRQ
Description: as §1
Human 5HT1A receptor-transfected L929 cells were collected by scraping into ice-cold Tris-HCl buffer (50 mM, pH 7.4). The suspension was centrifuged (23 500×g, 10 min, 4° C.) and pellets stored at −70° C. until required. They were then thawed and briefly homogenised using an Ultra-Turrax T25 homogeniser prior to dilution to an appropriate protein concentration optimised for specific and non-specific binding. [^3H]8OHDPAT (NEN, specific activity 127 Ci/mmol) was diluted in Tris-HCl assay buffer containing CaCl2 (50 mM and 4 mM, respectively; pH 7.7) at a concentration of 5 nmol/L. Prepared radioligand (50 μl) was then incubated (30 min, 37° C.) with membrane preparations from L929 cells stably-transfected with the h5HT1A gene construct (400 μl) and with 50 μl of either the 10% DMSO control, spiroxatrine (10^−6 mol/L final concentration), or compound of interest. Membrane-bound activity was detected by filtration through a Packard Filtermate harvester onto Unifaltemplates, washing with ice-cold Tris-HCI buffer (3×4 ml), followed by drying. Scintillation fluid was added and membranes were counted in a Topcount scintillation counter. % Specific bound and competition binding curves were calculated using S-Plus software (Insightful).

Fc1ccc2[nH]cc(C3=CCN(CC4COc5ccncc5O4)CC3)c2c1 (stereo not shown) [Compound 4]
IC50 [1]: 50.1 nM
IC50 [2]: 50.1 nM
IC50 [3]: 158 nM
IC50 [4]: 126 nM

Source: patent publication US20070066608A1, “Novel indole derivatives with an improved antipsychotic activity” (priority 2003, published 2007)
